Source: US20080039425A1, “Methods and Compositions to Reduce Tissue Irritation in Parenteral Formulations” (ALLOS THERAPEUTICS, INC., priority 2004, published 2008)

Tested on: rat tail vein
Assay: Rat-tail model, histopathological evaluation of tissue damage
Type: in vivo
Conditions: for Histopathology Score: rat tail vein, relative to efaproxiral at 38 mg/mL
Procedure: In order to determine if the effects seen in the NMR correlated to an ability of the dextrins to protect tissue, an animal model was designed. […] A 38 mg/mL efaproxiral solution was administered as the positive control. A saline solution was used as the negative control.
Maltodextrin has the property of being a safer molecule than its cyclic relative.

| Compound | Histopathology Score (efaproxiral 20 mg/mL) [%] | Histopathology Score (efaproxiral 38 mg/mL (positive control)) [%] | Tissue damage in rat tail (in words) (38 mg/mL efaproxiral, compared with saline negative control) |
| --- | --- | --- | --- |
| Cc1cc(C)cc(NC(=O)Cc2ccc(OC(C)(C)C(=O)O)cc2)c1 [Efaproxiral, 2-[4-[2-[(3,5-dimethylphenyl)amino]-2-oxoethyl]phenoxy]-2-methyl-propionic acid] | 24 | 100 |  |
| Cc1cc(C)cc(NC(=O)Cc2ccc(OC(C)(C)C(=O)[O-])cc2)c1.[Na+] [efaproxiral-Na] |  |  | significant damage was observed beyond that associated with the administration |
